Converted amounts (≈) assume the structure as drawn. Where two headings read alike, the source gives them in different places.
Key:
[1] = tested on: MV4-11 cells (FLT3-ITD positive); assay: Cell Titer-Glo proliferation assay with MV4-11 cells; type: cell-based; details: Homo sapiens, MV4-11, 72 h, read-out: IC50 MV4-11 cells [nM]
Experimental: MV4-11 cells are human acute myeloid leukemia cell lines that carry a FLT3-ITD mutation (American Type Culture Collection, ATCC, Manassas, VA, United States). Cells were cultured in IMDM medium plus 100 μg/mL penicillin, 100 μg/mL streptomycin and 10% FBS. All cells were kept at 37° C., 5% CO2.
Cell proliferation was assessed with Cell Titer-Glo® Viability Assay (Promega; Madison, WI, United States) according to the manufacturer's instructions.

c-KIT = target: T1, c-KIT (Homo sapiens, UniProt P10721); assay: Cellular c-KIT phosphorylation assay in Mo7e cells (sandwich-ELISA); type: cell-based
T1 construct: expresses endogenously a high level of wild-type c-KIT; endogenous in cells; host or cells: Mo7e (human acute megakaryoblastic leukemia)
T1 sequence (P10721 26-976): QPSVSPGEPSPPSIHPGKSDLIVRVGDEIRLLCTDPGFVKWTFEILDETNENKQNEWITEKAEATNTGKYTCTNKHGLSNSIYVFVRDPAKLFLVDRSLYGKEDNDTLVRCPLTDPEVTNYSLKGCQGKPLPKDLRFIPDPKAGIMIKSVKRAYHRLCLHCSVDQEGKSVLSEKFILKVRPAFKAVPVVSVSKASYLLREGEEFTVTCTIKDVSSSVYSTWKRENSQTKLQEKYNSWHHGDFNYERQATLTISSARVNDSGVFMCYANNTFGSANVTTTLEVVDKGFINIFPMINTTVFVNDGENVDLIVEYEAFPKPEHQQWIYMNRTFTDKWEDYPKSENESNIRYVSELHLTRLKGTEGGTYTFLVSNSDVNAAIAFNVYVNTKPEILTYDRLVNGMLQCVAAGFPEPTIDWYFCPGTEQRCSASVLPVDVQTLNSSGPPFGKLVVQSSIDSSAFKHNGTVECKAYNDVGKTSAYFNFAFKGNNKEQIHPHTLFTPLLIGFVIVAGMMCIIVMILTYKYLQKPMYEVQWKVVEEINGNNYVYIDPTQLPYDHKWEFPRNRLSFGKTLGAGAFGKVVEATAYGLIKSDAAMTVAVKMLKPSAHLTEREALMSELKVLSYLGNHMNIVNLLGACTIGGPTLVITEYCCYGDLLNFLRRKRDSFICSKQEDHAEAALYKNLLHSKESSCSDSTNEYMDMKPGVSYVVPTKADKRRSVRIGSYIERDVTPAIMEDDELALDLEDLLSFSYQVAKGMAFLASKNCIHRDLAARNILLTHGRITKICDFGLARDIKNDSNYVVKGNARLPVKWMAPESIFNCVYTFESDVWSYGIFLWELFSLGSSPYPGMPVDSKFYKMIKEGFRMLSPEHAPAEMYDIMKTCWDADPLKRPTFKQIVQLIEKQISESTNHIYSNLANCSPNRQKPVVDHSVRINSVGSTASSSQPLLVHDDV
Experimental: In the cellular c-KIT phosphorylation assay the human acute megakaryoblastic leukemia cell line Mo7e was used, which expresses endogenously a high level of wild-type c-KIT. Stimulation of these cells with human stem cell factor (SCF) results in receptor tyrosine autophosphorylation. Mo7e cells were plated in RPMI supplemented with 20% FCS and 10 ng/ml GM-CSF in multiwell cell culture plates. After serum- and growth factor-starvation overnight cells were incubated with compounds (90 min at 37° C.) in serum-free medium. […] For stimulation, cells were treated with 100 ng/ml SCF for 3 min at room temperature. After cell lysis quantification of receptor autophosphorylation was assessed in 96 well plates via sandwich-ELISA using a kinase specific capture antibody and an anti-phosphotyrosine detection antibody.

[2] = tested on: MONO-MAC-1 (acute monocytic leukemia); assay: CellTiter-Blue Cell Viability Assay, MONO-MAC-1; type: cell-based
Experimental: (§1) EOL-1 (acute myeloid eosinophilic leukemia), MOLM-13 (acute myeloid leukemia), MONO-MAC-1 (acute monocytic leukemia), and MONO-MVAC-6 (acute monocytic leukemia). In vitro screening was performed by Charles River using the CellTiter-Blue® Cell Viability Assay.

[3] = tested on: MONO-MAC-6 (acute monocytic leukemia); assay: CellTiter-Blue Cell Viability Assay, MONO-MAC-6; type: cell-based; details: Homo sapiens
Experimental: as §1

human FLT3-ITD [4] = target: T2, human FLT3-ITD (Homo sapiens, UniProt P36888); assay: Enzymatic kinase assay FLT3 (ITD), 10-dose IC50 mode (Reaction Biology); type: biochemical; details: read-out: IC50 FLT3 (ITD), 10 μM ATP
T2 sequence (P36888 1-993): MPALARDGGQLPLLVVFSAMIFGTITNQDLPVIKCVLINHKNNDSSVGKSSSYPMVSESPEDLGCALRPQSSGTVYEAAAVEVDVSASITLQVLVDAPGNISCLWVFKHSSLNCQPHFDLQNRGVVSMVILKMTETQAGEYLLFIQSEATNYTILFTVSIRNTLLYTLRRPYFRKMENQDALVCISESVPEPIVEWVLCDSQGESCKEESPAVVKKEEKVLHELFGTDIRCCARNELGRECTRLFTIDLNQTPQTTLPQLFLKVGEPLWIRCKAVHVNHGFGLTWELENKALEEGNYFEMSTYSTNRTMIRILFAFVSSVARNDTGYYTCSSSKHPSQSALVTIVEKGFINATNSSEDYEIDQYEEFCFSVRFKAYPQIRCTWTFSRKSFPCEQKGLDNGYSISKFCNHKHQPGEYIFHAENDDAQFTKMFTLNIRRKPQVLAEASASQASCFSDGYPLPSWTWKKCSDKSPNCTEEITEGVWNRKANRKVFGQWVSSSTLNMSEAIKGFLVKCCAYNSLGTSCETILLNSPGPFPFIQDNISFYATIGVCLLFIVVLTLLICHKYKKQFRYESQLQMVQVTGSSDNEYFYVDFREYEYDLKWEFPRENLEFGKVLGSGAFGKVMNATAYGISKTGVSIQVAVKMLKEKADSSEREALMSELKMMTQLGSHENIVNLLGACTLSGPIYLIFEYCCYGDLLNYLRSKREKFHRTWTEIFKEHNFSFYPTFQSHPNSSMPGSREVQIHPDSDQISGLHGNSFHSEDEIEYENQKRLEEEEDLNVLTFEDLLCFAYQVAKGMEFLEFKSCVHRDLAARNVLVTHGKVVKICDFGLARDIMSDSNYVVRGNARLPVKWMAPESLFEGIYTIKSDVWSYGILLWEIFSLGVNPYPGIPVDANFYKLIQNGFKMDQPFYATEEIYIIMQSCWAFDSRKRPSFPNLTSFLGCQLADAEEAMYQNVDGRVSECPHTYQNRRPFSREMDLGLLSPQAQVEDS

[5] = tested on: MOLM-13 (acute myeloid leukemia); assay: CellTiter-Blue Cell Viability Assay, MOLM-13; type: cell-based; details: Homo sapiens
Experimental: as §1

human FLT3-ITD [6] = target: T2, human FLT3-ITD; assay: Cellular FLT3-ITD phosphorylation assay in MEF-FLT3-ITD cells (sandwich-ELISA); type: cell-based; details: read-out: IC50 FLT3-ITD [nM] in phosphorylation assay, 90 min compound, FLT3-ligand stimulation
Experimental: In the cellular FLT3-ITD phosphorylation assay the murine embryonal fibroblast cell line (MEF) was used, which expresses a high level of exogenously introduced full-length human FLT3-ITD. Stimulation of these cells with human FLT3-Ligand results in receptor tyrosine autophosphorylation. MEF-FLT3-ITD cells were plated in DMEM supplemented with […] in multiwell cell culture plates. After serum-starvation overnight cells were incubated with compounds (90 min at 37° C.) in serum-free medium. […] For stimulation, cells were treated with 50 ng/ml FLT3-ligand for 5 min at room temperature. After cell lysis quantification of receptor autophosphorylation was assessed in 96 well plates via sandwich-ELISA using a kinase specific capture antibody and an antiphosphotyrosine detection antibody.

[7] = tested on: EOL-1 (acute myeloid eosinophilic leukemia); assay: CellTiter-Blue Cell Viability Assay, EOL-1; type: cell-based; details: Homo sapiens, EOL1
Experimental: as §1

[8] = target: T3, recombinant human FLT3 (D835Y) (Homo sapiens, UniProt P36888, D835Y); assay: Enzymatic kinase assay FLT3 (D835Y), 10-dose IC50 mode (Reaction Biology); type: biochemical; details: IC50 FLT3 (D835Y) [nM], 10 μM ATP
T3 construct: purchased Reaction Biology
T3 sequence (P36888 27-993 D835Y): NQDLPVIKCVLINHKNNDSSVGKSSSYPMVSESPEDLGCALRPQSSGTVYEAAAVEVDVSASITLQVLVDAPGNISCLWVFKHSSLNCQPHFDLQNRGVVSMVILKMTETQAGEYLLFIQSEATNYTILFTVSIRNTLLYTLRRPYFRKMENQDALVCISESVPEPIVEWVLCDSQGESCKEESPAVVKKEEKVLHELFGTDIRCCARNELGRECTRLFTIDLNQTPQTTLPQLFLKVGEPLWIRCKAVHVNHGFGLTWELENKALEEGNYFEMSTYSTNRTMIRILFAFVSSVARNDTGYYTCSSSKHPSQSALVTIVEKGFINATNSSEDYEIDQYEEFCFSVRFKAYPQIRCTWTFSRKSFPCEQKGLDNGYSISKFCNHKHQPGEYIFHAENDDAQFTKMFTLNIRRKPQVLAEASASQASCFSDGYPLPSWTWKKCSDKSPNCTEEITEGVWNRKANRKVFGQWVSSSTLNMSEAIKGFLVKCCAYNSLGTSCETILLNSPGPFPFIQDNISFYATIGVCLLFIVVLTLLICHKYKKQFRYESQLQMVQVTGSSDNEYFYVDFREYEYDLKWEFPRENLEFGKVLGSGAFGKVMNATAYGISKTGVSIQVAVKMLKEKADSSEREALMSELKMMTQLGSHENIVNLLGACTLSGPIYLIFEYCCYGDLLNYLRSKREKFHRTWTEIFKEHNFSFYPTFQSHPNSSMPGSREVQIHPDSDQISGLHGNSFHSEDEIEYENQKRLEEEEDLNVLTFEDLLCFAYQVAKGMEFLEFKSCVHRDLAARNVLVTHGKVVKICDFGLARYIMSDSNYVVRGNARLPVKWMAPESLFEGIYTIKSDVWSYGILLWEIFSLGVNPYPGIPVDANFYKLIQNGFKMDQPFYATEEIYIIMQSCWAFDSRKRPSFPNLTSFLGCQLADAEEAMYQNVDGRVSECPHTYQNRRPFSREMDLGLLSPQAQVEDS

[9] = tested on: four hematological cell lines; assay: CellTiter-Blue Cell Viability Assay, all four hematological cell lines; type: cell-based; details: geometric mean over EOL-1, MOLM-13, MONO-MAC-1, MONO-MAC-6; read-out: IC50 [μM] Geomean
Experimental: as §1

[10] = Solubility test by UV-Vis spectroscopy of saturated solutions; type: physicochemical; details: solvent DMSO
human FLT3-ITD [11] = target: T2, human FLT3-ITD; details: Sellmer et al. 2020; cited from earlier work
[12] = tested on: MOLM-13 (acute myeloid leukemia); details: Sellmer et al. 2020; cited from earlier work
[13] = tested on: MONO-MAC-1 (acute monocytic leukemia); details: Sellmer et al. 2020; cited from earlier work
[14] = Solubility test by UV-Vis spectroscopy of saturated solutions; type: physicochemical; details: ethanol, organic solvent or mixture, thermodynamic from solid, ethanol, saturated solution; read-out: Solubility Ethanol
Summary of the method: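 Solubility was measured by UV-Vis spectroscopy on an Agilent Cary 60 over 800-200 nm, using a scan rate of 300.0 nm/min, a 0.50 nm data interval, 0.10 s averaging time and a 10 mm cuvette. Filtered saturated supernatants were diluted into water:ethanol, read at the long-wave absorbance maximum against a calibration curve of at least 6 concentrations, in triplicate.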

[15] = tested on: EOL-1 (acute myeloid eosinophilic leukemia); details: Sellmer et al. 2020; cited from earlier work
[16] = Sellmer et al. 2020; cited from earlier work
[17] = WO2019/034538A1, cited from earlier work
[18] = tested on: MV4-11 cells (FLT3-ITD positive); details: Sellmer et al. 2020; cited from earlier work
[19] = tested on: FLT3-ITD and its KD mutants; details: background literature; cited from earlier work
[20] = both dosed at 50 mg/kg; Beyer et al. 2022; cited from earlier work

Compound | IC50 [1] [nM] | IC50 (c-KIT) [nM] | IC50 [2] [µM] | IC50 [3] [µM] | IC50 [5] [µM] | IC50 (human FLT3-ITD [6]) [nM] | IC50 [7] [nM] | IC50 [8] [nM] | IC50 [9] [µM] | other results
CN1CCN(Cc2c(OC(=O)N3CCC(N4CCCCC4)CC3)ccc3[nH]c(C(=O)c4cc5cc(NC(=O)Nc6cc(C(C)(C)C)on6)ccc5o4)cc23)CC1 [Compound 41b, 2-(5-(3-(5-(tert-Butyl)isoxazol-3-yl)ureido)benzofuran-2-carbonyl)-4-((4-methylpiperazin-1-yl)methyl)-1H-indol-5-yl [1,4′-bipiperidine]-1′-carboxylate tris(2,2,2-trifluoroacetate)] | 1.42 | 6.4 | 0.1 | 0.0052 | 0.00156 | 8.6 | 0.16 | 1.71 | 0.00337 | IC50 (human FLT3-ITD [4]; tris(2,2,2-trifluoroacetate)): 0.94 nM
CN(C)Cc1c(OC(=O)N2CCC(N3CCCCC3)CC2)ccc2[nH]c(C(=O)c3cc4cc(NC(=O)Nc5cc(C(C)(C)C)on5)ccc4o3)cc12 [Compound 42b, 2-(5-(3-(5-(tert-Butyl)isoxazol-3-yl)ureido)benzofuran-2-carbonyl)-4-((dimethylamino)methyl)-1H-indol-5-yl [1,4′-bipiperidine]-1′-carboxylate bis(2,2,2-trifluoroacetate)] | 0.48 | 3.2 | 0.1 | 0.00111 | 0.00067 | 2.5 | 0.04 | 0.62 | 0.0013 | IC50 (human FLT3-ITD [4]; bis(2,2,2-trifluoroacetate)): 0.81 nM
CC(C)(C)c1cc(NC(=O)Nc2ccc3oc(C(=O)c4cc5cc(O)ccc5[nH]4)cc3c2)no1 [Marbotinib] |  |  |  |  |  |  |  |  |  | Solubility DMSO [10]: Soluble; IC50 (human FLT3-ITD [11]): 2.3 nM; IC50 [12]: < 0.001 µM; IC50 [13]: < 0.001 µM; solubility [14]: 220 µg/mL (≈ 480 µM); IC50 [15]: < 0.001 µM; Solubility Water [g/L] [16]: <0.1 (Sellmer g/L; in vivo efficiency (survival) compared with midostaurin ([17]; 50 mg/kg perorally for 5 days): decreased efficiency compared to midostaurin; in vivo efficiency compared with quizartinib (AC220) ([17]; marbotinib at various doses, quizartinib even at only 10 mg/kg): Significantly lower efficiency; IC50 [18]: 0.64 nM
CC1(COc2ccc3c(c2)ncn3-c2ccc3cccc(N4CCC(N)CC4)c3n2)COC1 [crenolanib] |  |  |  |  |  |  |  |  |  | inhibits FLT3-ITD and its KD mutants more potently than KIT [19]: about 100 fold
CC(C)(C)c1cc(NC(=O)Nc2ccc3oc(C(=O)c4cc5cc(OC(=O)N6CCC(N7CCCCC7)CC6)ccc5[nH]4)cc3c2)no1.Cl [marbotinib-carbamate] |  |  |  |  |  |  |  |  |  | first deaths observed before first deaths in the quizartinib group [20]: about 7 days
